Test results taken from patent US20060019883A1, “Use of cyclin D1 inhibitors” (priority 2003, published 2006).
Entries after “also recorded” stand apart in the source; their conditions may differ.

System: ER-positive breast cancer
Assay: Randomised clinical trial: 2 years of tamoxifen treatment or no adjuvant treatment, breast cancer specific survival in relation to cyclin D1
Format: in vivo, patients
Settings: for Median survival time of deceased patients / Mortality rate: tumours with >90% ER positive cells
Description: The breast cancer material used in this study initially included 168 post-menopausal (>55 years old) patients with small (T0-T1) node-negative (N0) tumours. […] Data regarding breast cancer specific survival was obtained from the Swedish Cancer Registry (2002) resulting in a mean follow-up time of 18 years (range 15-22 years). Representative parts of the tumours were assembled in a tissue array, sectioned and immunohistochemically stained for ER (antibodies M7047 from Dako, Denmark, diluted 1/200) and cyclin D1 (M7155, Dako, Denmark, 1/100). […] The alternative model is that cyclin D1 could sequester cdk-inhibitors thereby effecting the G1/S control and tamoxifen response.
E: Cumulative total survival in the patient group of cyclin D1 high breast cancer subdivided according to tamoxifen treatment or nor treatment.

[1] = High CD1 and tamoxifen treatment
[2] = Moderate/low CD1 and tamoxifen treatment

CC/C(=C(\c1ccccc1)c1ccc(OCCN(C)C)cc1)c1ccccc1 [tamoxifen]
Difference in survival for tamoxifen in comparison to no treatment (102 tumours with >90% ER positive cells): marked difference in survival | Median survival time of deceased patients [1]: 47 months* | Mortality rate [1]: 39% | Median survival time of deceased patients [2]: 169 months | Mortality rate [2]: 63% | Difference in survival for tamoxifen in comparison to no treatment (tumours lacking or expressing low ER and tumours with 10-90% ER positive cells): did not show any significant difference in survival | Difference in survival between tamoxifen and no treatment (tumours with high cyclin D1): this difference was eliminated; also recorded: little or no effect
